According to patent US7858620B2, “Cyanoisoquinoline” (H. Lundbeck A/S, priority 2007, dated 2010):

What was measured:
PDE10A enzyme = molecular target: T1, PDE10A enzyme (Homo sapiens, UniProt Q9Y233); test: PDE10A inhibition assay, SPA; type: biochemical; settings: column head 2,1334003; unit inferred, nM
T1 construct: made in house; host or cells: E. coli BL21(DE3)
Method: Active PDE10A enzyme is prepared in a number of ways for use in PDE assays (Loughney, K. et al. Gene 1999, 234, 109-117; Fujishige, K. et al. Eur J Biochem. 1999, 266, 1118-1127 and Soderling, S. et al. Proc. Natl. Acad. Sci. 1999, 96, 7071-7076). PDE10A can be expressed as full-length proteins or as truncated proteins, as long as they express the catalytic domain. PDE10A can be prepared in different cell types, for example insect cells or E. coli. An example of a method to obtain catalytically active PDE10A is as follows: The catalytic domain of human PDE10A (amino acids 440-779 from the sequence with accession number NP 006652) is amplified from total human brain total RNA by standard RT-PCR and is cloned into the BamH1 and Xho1 sites of the pET28a vector (Novagen). Expression in coli is performed according to standard protocols. Briefly, the expression plasmids are transformed into the BL21(DE3) E. coli strain, and 50 mL cultures inoculated with the cells allowed to grow to an OD600 of 0.4-0.6 before protein expression is induced with 0.5 mM IPTG. Following induction, the cells are incubated overnight at room temperature, after which the cells are collected by centrifugation. Cells expressing PDE10A are resuspended in 12 mL (50 mM TRIS-HCl-pH8.0, 1 mM MgCl2 and protease inhibitors). The cells are lysed by sonication, and after all cells are lysed, TritonX100 is added according to Novagen protocols.
PDE10A and Pde3A assays can for example be performed as follows: PDE10A and Pde3A assays are performed in 60 uL samples containing a fixed amount of the relevant PDE enzyme (sufficient to convert 20-25% of the cyclic nucleotide substrate), a buffer (50 mM HEPES7.6; 10 mM MgCl2; 0.02% Tween20), 0.1 mg/ml BSA, 225 pCi of ^3H-labelled cyclic nucleotide substrate, tritium labeled cAMP to a final concentration of 5 nM and varying amounts of inhibitors. Reactions are initiated by addition of the cyclic nucleotide substrate, and reactions are allowed to proceed for one hr at room temperature before being terminated through mixing with 15 uL 8 mg/mL yttrium silicate SPA beads (Amersham). The beads are allowed to settle for one hr in the dark before the plates are counted in a Wallac 1450 Microbeta counter. The measured signal can be converted to activity relative to an uninhibited control (100%) and IC50 values can be calculated using the Xlfit extension to EXCEL.

catalepsy in rats = settings: cited from earlier work
[1] = test system: PCP induced hyperactivity in rats; settings: cited from earlier work
[2] = test system: amphetamine induced hyperactivity; settings: rat, in vivo; cited from earlier work

T1 sequence (Q9Y233 716-1055): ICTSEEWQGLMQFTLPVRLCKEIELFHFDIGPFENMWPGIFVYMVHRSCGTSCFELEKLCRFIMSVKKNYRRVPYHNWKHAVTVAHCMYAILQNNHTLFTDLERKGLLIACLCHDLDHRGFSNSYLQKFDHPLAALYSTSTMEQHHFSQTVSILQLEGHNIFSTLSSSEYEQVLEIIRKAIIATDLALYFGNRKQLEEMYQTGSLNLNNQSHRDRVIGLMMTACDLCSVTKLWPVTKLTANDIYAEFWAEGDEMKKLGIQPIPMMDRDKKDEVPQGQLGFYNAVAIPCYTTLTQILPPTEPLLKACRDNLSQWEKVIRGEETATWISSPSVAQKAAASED

SMILES | IC50 (PDE10A enzyme) | other results
COc1cc2c(C#N)cnc(N3CCNC(c4ccc5c(c4)OCCO5)C3)c2cc1OC (stereo not drawn) [Compound 66, 1-[3-(2,3-Dihydro-benzo[1,4]dioxin-6-yl)-piperazin-1-yl]-6,7-dimethoxy-isoquinoline-4-carbonitrile] | 130 nM | –
COc1cc2c(C#N)cnc(N3CCNC(c4ccc(OCC(C)C)cc4)C3)c2cc1OC (stereo not drawn) [Compound 67, 1-[3-(4-Isobutoxy-phenyl)-piperazin-1-yl]-6,7-dimethoxy-isoquinoline-4-carbonitrile] | 1100 nM | –
COc1cc2c(C#N)cnc(N3CCNC(c4ccc(OC)c(C(F)(F)F)c4)C3)c2cc1OC (stereo not drawn) [Compound 68, 6,7-Dimethoxy-1-[3-(4-methoxy-3-trifluoromethyl-phenyl)-piperazin-1-yl]-isoquinoline-4-carbonitrile] | 440 nM | –
COc1ccc(Cc2nccc3cc(OC)c(OC)cc23)cc1OC [Papaverin] | – | catalepsy on its own (catalepsy in rats; alone): did not cause catalepsy on its own; effect on cataleptic effect of haloperidol (catalepsy in rats; with D2 receptor antagonist haloperidol): potentiated the cataleptic effect; hyperactivity induced by PCP [1]: reduced hyperactivity; reduction of amphetamine induced hyperactivity [2]: insignificant

Continued, in another order:

IC50 (PDE10A enzyme) | SMILES | other results
870 nM | COc1cc2c(C#N)cnc(N3CCNC(c4ccc(OC(C)C)c(C)c4)C3)c2cc1OC (stereo not drawn) [Compound 63, 1-[3-(4-Isopropoxy-3-methyl-phenyl)-piperazin-1-yl]-6,7-dimethoxy-isoquinoline-4-carbonitrile] | –
2100 nM | COc1cc(C)c(C2CN(c3ncc(C#N)c4cc(OC)c(OC)cc34)CCN2)c(C)c1 (stereo not drawn) [Compound 64, 6,7-Dimethoxy-1-[3-(4-methoxy-2,6-dimethyl-phenyl)-piperazin-1-yl]-isoquinoline-4-carbonitrile] | –
1700 nM | COc1cc2c(C#N)cnc(N3CCNC(c4cc(C)c(OC)c(C)c4)C3)c2cc1OC (stereo not drawn) [Compound 65, 6,7-Dimethoxy-1-[3-(4-methoxy-3,5-dimethyl-phenyl)-piperazin-1-yl]-isoquinoline-4-carbonitrile] | –
790 nM | CCOc1ccc(C2CN(c3ncc(C#N)c4cc(OC)c(OC)cc34)CCN2)c(C)c1 (stereo not drawn) [Compound 69, 1-[3-(4-Ethoxy-2-methyl-phenyl)-piperazin-1-yl]-6,7-dimethoxy-isoquinoline-4-carbonitrile] | –
66 nM | COc1ccc(C2CN(c3ncc(C#N)c4cc(OC)c(OC)cc34)CCN2)cc1NC(C)=O (stereo not drawn) [Compound 70, N-{5-[4-(4-Cyano-6,7-dimethoxy-isoquinolin-1-yl)-piperazin-2-yl]-2-methoxy-phenyl}-acetamide] | –
